From US6900217B2, “Substituted 6,5-hetero-bicyclic derivatives” (Pfizer Inc, priority 1996, dated 2005) come the findings set out here.

For orientation: melting point means the temperature, or range, at which the solid turns liquid.

Take `CCC(CC)Nc1c(Br)c(CBr)nc2c1nnn2-c1c(C)cc(C)cc1C` [Example 6, [6-Bromo-5-bromomethyl-3-(2,4,6-trimethyl-phenyl)-3H-[1,2,3]triazolo[4,5-b]pyridin-7-yl]-(1-ethyl-propyl)-amine]: the melting point was 123 to 125 °C.
